In series [1] the target is T1, human calcitonin receptor (hCTR) (Homo sapiens, UniProt P30988).
T1 construct: expressed in transfected cells
T1 sequence (P30988 25-474): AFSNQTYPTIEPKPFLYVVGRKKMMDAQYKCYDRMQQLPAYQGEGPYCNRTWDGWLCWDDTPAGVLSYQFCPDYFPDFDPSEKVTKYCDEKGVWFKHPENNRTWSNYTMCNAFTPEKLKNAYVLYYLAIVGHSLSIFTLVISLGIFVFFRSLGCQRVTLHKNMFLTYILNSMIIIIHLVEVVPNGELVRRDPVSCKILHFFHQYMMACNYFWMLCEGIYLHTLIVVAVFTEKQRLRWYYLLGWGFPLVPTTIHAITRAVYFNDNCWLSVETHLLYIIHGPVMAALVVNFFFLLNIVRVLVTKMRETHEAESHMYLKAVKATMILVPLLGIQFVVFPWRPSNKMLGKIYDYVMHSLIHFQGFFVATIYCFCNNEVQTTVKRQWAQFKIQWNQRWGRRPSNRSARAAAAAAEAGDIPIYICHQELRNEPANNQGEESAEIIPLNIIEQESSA
The experiment in a line: cAMP production in 1321N1 cells with stable recombinant expression of human calcitonin receptor (hCTR). The format is cell-based. As to conditions: cAMP, 1321N1 cells, assay buffer with 0.1% BSA; read-out: EC50 (pM) hCTR. The essentials: (§1)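 Thawed cells in HBSS/0.1% BSA/25 mM HEPES pH 7.4 with 0.5 mM IBMX were incubated with peptides 30 min at room temperature; cAMP read by HTRF. EC50 from 4-parameter fit of % activation relative to maximal amylin or calcitonin effect.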
For orientation: cAMP levels reflect the balance of adenylyl cyclase and phosphodiesterase activity.

Another series can be described thus: in vivo. The settings on record: male, Sprague-Dawley, rat, 20 nmol/kg.
The target of series [2] is T2, human amylin receptor (calcitonin receptor co-expressed with receptor activity modifying protein, RAMP3) (hAMYR3) (Homo sapiens, UniProt O60896+P30988).
T2 construct: expressed in transfected cells
T2 sequence (P30988 25-474): T1 sequence (P30988 25-474)
T2 sequence (O60896 24-148 partner): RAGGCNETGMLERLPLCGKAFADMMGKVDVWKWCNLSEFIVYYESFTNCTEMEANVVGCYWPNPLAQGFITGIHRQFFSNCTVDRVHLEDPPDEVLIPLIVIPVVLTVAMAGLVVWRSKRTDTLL
The experiment in a line: cAMP production in 1321N1 cells with stable recombinant expression of human amylin receptor (hAMYR3). As to conditions: for Ratio (selectivity hAMYR vs hCTR, ratio of EC50 values at the two receptors): EC50 hCTR / EC50 hAMYR3; for EC50: cAMP, 1321N1 cells, assay buffer with 0.1% BSA, read-out: EC50 (pM) hAMYR3. The format is cell-based. The essentials: as §1

Series [3] in a line: Thioflavin T fibrillation assay. As to conditions: for Time taken to detect increase in fluorescence intensity: ThT fibrillation assay, peptide 1 mg/mL in 25 mM sodium acetate buffer pH 4.0, 6 days at 37 °C with shaking, >144 h = no increase. The format is physicochemical. The essentials: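 Peptides at 1 mg/mL in 25 mM sodium acetate pH 4.0 with ThT (from 0.25 mM stock), incubated 6 days at 37 °C with intermittent orbital shaking at 500–750 rpm. Fluorescence (ex 444/em 480 nm) read every 30 min; value is average time to a rise in baseline-corrected signal.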

Molecules are shown by their SMILES. Numbered stars: 1 amine (or outer) side, 2 acyl side, 3 side chain; on linkers, the order of the positions; unused ones are H or OH. Bridge positions count the residues as written; N and C are the ends. Square brackets hold non-standard residues; d marks the D form. Side chains are listed from the residue outwards. Peptide text beside a SMILES is read from it. * marks the point of attachment. C18 diacid = O=C(O)CCCCCCCCCCCCCCCCC(=O)*; γGlu = O=C(O)[C@H](CCC(=O)[*:2])N[*:1]; αMeF = C[C@](N)(Cc1ccccc1)C(=O)O

What is called EC50 is the concentration that produces a half-maximal response. The half-life is the time needed for the level to fall by half in the phase considered. Low readings indicate rapid decline, high ones slow decline. Take `CC[C@H](C)[C@H](NC(=O)[C@@H]1CCCN1C(=O)CNC(=O)[C@](C)(Cc1ccccc1)NC(=O)[C@H](CC(N)=O)NC(=O)[C@H](CC(N)=O)NC(=O)[C@H](CO)NC(=O)[C@H](CO)NC(=O)[C@H](Cc1c[nH]cn1)NC(=O)[C@@H](NC(=O)[C@H](CC(C)C)NC(=O)[C@H](Cc1ccccc1)NC(=O)[C@H](CC(N)=O)NC(=O)[C@H](C)NC(=O)[C@H](CC(C)C)NC(=O)[C@H](CCCNC(=N)N)NC(=O)[C@H](CCC(N)=O)NC(=O)[C@@H](NC(=O)[C@H](C)NC(=O)[C@@H]1CSSC[C@H](NC(=O)[C@@H](N)CCCCNC(=O)CC[C@H](NC(=O)CC[C@H](NC(=O)CCCCCCCCCCCCCCCCC(=O)O)C(=O)O)C(=O)O)C(=O)N[C@@H](CC(N)=O)C(=O)N[C@@H]([C@@H](C)O)C(=O)N[C@@H](C)C(=O)N[C@@H]([C@@H](C)O)C(=O)N1)[C@@H](C)O)C(C)C)C(=O)N[C@@H](CC(C)C)C(=O)N1CCC[C@H]1C(=O)N1CCC[C@H]1C(=O)N[C@H](C(=O)N[C@@H](CC(N)=O)C(=O)N[C@H](C(=O)NCC(=O)N[C@@H](CO)C(=O)N[C@@H](CCCNC(=N)N)C(=O)N[C@H](C(=O)N[C@@H](Cc1ccc(O)cc1)C(N)=O)[C@@H](C)O)C(C)C)[C@@H](C)O` [Peptide 21, K(γE-γE-C18diacid)[CNTATC]ATQRLANFLVHSSNN(αMePhe)GPILPPTNVGSRTY-amide] (H-K([γGlu-γGlu-C18 diacid])CNTATCATQRLANFLVHSSNN[αMeF]GPILPPTNVGSRTY-NH2; disulfide 2-7; N-terminus assumed): the EC50 in series [1] stood at 3410 pM; in series [2], 136 pM. For the same compound, the values for the half-life in the series “in vivo” (iv) and in “in vivo” (sc) were 8 h and 8.1 h, respectively. The “Ratio (selectivity hAMYR vs hCTR, ratio of EC50 values at the two receptors)” value in series [2] stood at 25. For the same compound, in series [3], the “Time taken to detect increase in fluorescence intensity” value is greater than 144 h.

As to `CC[C@H](C)[C@H](NC(=O)[C@@H]1CCCN1C(=O)CNC(=O)[C@H](Cc1ccccc1)NC(=O)[C@H](CC(N)=O)NC(=O)[C@H](CC(N)=O)NC(=O)[C@H](CO)NC(=O)[C@H](CO)NC(=O)[C@H](Cc1c[nH]cn1)NC(=O)[C@@H](NC(=O)[C@H](CC(C)C)NC(=O)[C@H](Cc1ccccc1)NC(=O)[C@H](CC(N)=O)NC(=O)[C@H](C)NC(=O)[C@H](CC(C)C)NC(=O)[C@H](CCCNC(=N)N)NC(=O)[C@H](CCC(N)=O)NC(=O)[C@@H](NC(=O)[C@H](C)NC(=O)[C@@H]1CSSC[C@H](NC(=O)[C@@H](N)CCCCNC(=O)CC[C@H](NC(=O)CC[C@H](NC(=O)CCCCCCCCCCCCCCCCC(=O)O)C(=O)O)C(=O)O)C(=O)N[C@@H](CC(N)=O)C(=O)N[C@@H]([C@@H](C)O)C(=O)N[C@@H](C)C(=O)N[C@@H]([C@@H](C)O)C(=O)N1)[C@@H](C)O)C(C)C)C(=O)N[C@@H](CC(C)C)C(=O)N1CCC[C@H]1C(=O)N1CCC[C@H]1C(=O)N[C@H](C(=O)N[C@@H](CC(N)=O)C(=O)N[C@H](C(=O)NCC(=O)N[C@@H](CO)C(=O)N[C@@H](CC(N)=O)C(=O)N[C@H](C(=O)N[C@@H](Cc1ccc(O)cc1)C(N)=O)[C@@H](C)O)C(C)C)[C@@H](C)O` [Peptide 5] (H-K([γGlu-γGlu-C18 diacid])CNTATCATQRLANFLVHSSNNFGPILPPTNVGSNTY-NH2; disulfide 2-7; N-terminus assumed), the EC50 in series [1] was found to be 3600 pM; in series [2] it was 174 pM. Also, the half-life was 10.5 h in the series “in vivo” (iv) and 9.4 h in the series “in vivo” (sc). Also, the “Ratio (selectivity hAMYR vs hCTR, ratio of EC50 values at the two receptors)” value in series [2] is 21. Further, the fibril-forming tendency result in series [3] (ThT assay, 1 mg/mL, pH 4.0, 37 °C, compared to pramlintide) is “increases the fibril-forming tendency”. In series [3], the “Time taken to detect increase in fluorescence intensity” value was 7 h.
